Results reported in patent US6593144B2, “Magnetic resonance imaging using hyperpolarized noble gases” (The Trustees of Princeton University, priority 1994, dated 2003).
Where “and” joins values, the source holds several entries; their conditions need not be identical. Equal values may be shown once. Read-outs that look alike come from different tables or passages of the source.

Columns and labels:
[1] = cited from earlier work
[2] = brain, cited from earlier work
[3] = inhaled, humans; cited from earlier work
[4] = inhaled, mouse; cited from earlier work
[5] = cited from earlier work; remark: listed apart in the source
[6] = 30° C., 0.5 atm, cited from earlier work
[7] = dissolved in rat blood, 293° K, data obtained over 12 hr; cited from earlier work
[8] = Relaxivity of O2 toward 129Xe and T1 estimates derived from it; assay type: physicochemical; details: for T1: absence of other relaxers
From the text: It is known that ^129Xe, which has a long longitudinal relaxation time in the gas phase, can be relaxed by magnetic dipole-dipole interaction and/or Fermi-Contact interaction with the unpaired electron spins of dioxygen. (Reference 18). The solubility of Xenon (and also of dioxygen) in water is low. Due to the low sensitivity of the ^129Xe signal, the time required for determining the relaxivity of O2 toward ^129Xe with a series of T1 determinations over a range of O2 concentrations in water would be prohibitively long.
The relaxivity of O2 toward ^129Xe has been measured in only one liquid, i.e., octanol, which models an amphipathic membrane lipid. (Reference 17). The observed relaxivity, 0.029 s^−1mM^−1, is about three times larger than that estimated from previous reports for gas-phase relaxation, i.e., (Reference 18), 0.0087 s^−1mM^−1, as might be expected for encounters in the condensed phase. The dioxygen relaxivity for ^129Xe is constant over the concentration range studied, and thus 1/T1 will be a linear function of O2 concentration over the entire physiological range (0-0.2 atm, 0-0.2 mM). This translates into a T1 value of 18 s in air-saturated lipid, and 80 s in anaerobic lipid, in the absence of other relaxers. This is the first reported value for the O2 relaxivity toward ^129Xe in a condensed phase. T2values over these O2 concentrations have been determined to range from 0.5 to 5.0 s. […] In fact, given the relative inefficiency of the known non-paramagnetic relaxation mechanisms, it is suspected that T1 in many tissues will not fall below seconds or even tens of seconds.
This estimate of T1≈38 s for ^129Xe dissolved in rat blood at 293° K is very encouraging. […] One can also estimate T1 values for other model systems. The T1 of ^129Xe in water has been measured at 300° K to be 130 s. […] While the actual values of T1 in each tissue must be, and remain to be, determined, it is expected that the minimum value will fall above 15 s, a duration sufficient to enable significant accumulation of polarized ^129Xe in major tissues. […]

[9] = cited from earlier work; remark: listed apart in the source
[10] = myoglobin (aqueous Fe(III) metmyoglobin)

Which “relaxivity of O2 toward 129Xe” value ([1]; gas phase, estimated from previous reports) does the source give for `O=O` [O2, dioxygen] here?
Its value is 0.0087 s⁻¹ mM⁻¹.

What about the “relaxivity of O2 toward 129Xe” value ([1]; octanol, 300° K) of the same compound?
The value was 0.029 s⁻¹ mM⁻¹.

With `[Xe]` [Xenon] as the compound, how does the “steady-state concentration bound to proteins” value ([2]; 0.5-1.0 atm lung Xenon) read?
The value was 1 to 5 mM.

What about the “steady-state concentration in the membrane bilayers” value ([2]; 0.5-1.0 atm lung Xenon) of the same compound?
Its value is 5 to 10 mM.

What about the “steady-state concentration in water” value ([2]; 0.5-1.0 atm lung Xenon) of the same compound?
Its value is 2 to 4 mM.

And the “solubility in white matter versus gray matter” value [2]?
The value was “approximately twice as soluble in white matter as in gray matter”.

What about the “time to reach a steady state with the entire blood volume (one blood circuit)” value [3] of the same compound?
Its value is “about 18 s”.

And the “time to reach a steady state with the entire blood volume (one blood circuit)” value [4]?
The value was “about 1 s”.

And the metabolism ([5]; by the body)?
Its metabolism is “not metabolized by the body”.

And the “period of recovery from the exhaled breath” value ([5]; human subjects)?
Its value is about 20 min.

And the “solubility of Xenon in octanol” value ([6]; octanol)?
The value was 48 mM.

What about the “solubility of Xenon in water” value ([6]; water) of the same compound?
The value was 2.4 mM.

Which T1 [7] does the source give for `[129Xe]` [^129Xe, Xenon-129] here?
Its T1 is 38 s and ≈ 38 s.

What about the T1 ([8]; air-saturated lipid) of the same compound?
The T1 was 18 s.

And the T1 ([8]; anaerobic lipid)?
Its T1 is 80 s.

And the “estimated T1” value ([8]; fully oxygenated membranes)?
Its value is over 15 s.

What about the T1 ([9]; 10% Fe(III) metMb) of the same compound?
Its T1 is 0.005 s.

What about the T1 ([9]; benzene, 9.4 T and 300° K, Diehl and Jokisaari) of the same compound?
Its T1 is 155.0 ± 6.2 s.

And the T1 ([9]; benzene, 300° K)?
The T1 was 160 s and 160.5 s.

And the T1 ([9]; benzene, Moschos and Reisse)?
The T1 was 240 s.

What about the T2 ([9]; benzene) of the same compound?
The T2 was 0.88 s.

And the T1 [9, 10]?
The T1 was 0.0052 s.

What about the T2 [9, 10] of the same compound?
Its T2 is 0.00057 s.

And the T1 ([9]; octanol)?
The T1 was 80 s and 78.5 s.

What about the T2 ([9]; octanol) of the same compound?
The T2 was 5.3 s.

What about the T2 ([9]; pure gas phase, 1 atm) of the same compound?
Its T2 is “≦56 hrs”.

What about the T1 ([9]; pure gas phase, practically) of the same compound?
Its T1 is “at least 3000 s”.

And the T1 ([9]; water)?
Its T1 is 130 s and 131.3 s.

What about the T2 ([9]; water) of the same compound?
Its T2 is 5.3 s.

What about the T2 ([1]; octanol, over O2 concentrations 0-0.2 atm) of the same compound?
The T2 was 0.5 to 5.0 s.
